Results: US10947213B1 (Merck Patent GmbH, priority 2015, dated 2021)
Where a name gives a salt, the structure may show the parent alone.

These molecules were tested against T1, TLR7/NFKb HEK cells (Homo sapiens, UniProt Q9NYK1) (assay: HEK Cell Assay (TLR7/NFKb reporter, Steady-Glo luciferase readout)). Conditions: 30 min compound preincubation, then R*48 agonist for 5 hours, read-out: Potency.
T1 construct: expressed in transfected cells; host or cells: HEK cells (TLR7/NFKb reporter line)
T1 sequence (Q9NYK1 27-1049): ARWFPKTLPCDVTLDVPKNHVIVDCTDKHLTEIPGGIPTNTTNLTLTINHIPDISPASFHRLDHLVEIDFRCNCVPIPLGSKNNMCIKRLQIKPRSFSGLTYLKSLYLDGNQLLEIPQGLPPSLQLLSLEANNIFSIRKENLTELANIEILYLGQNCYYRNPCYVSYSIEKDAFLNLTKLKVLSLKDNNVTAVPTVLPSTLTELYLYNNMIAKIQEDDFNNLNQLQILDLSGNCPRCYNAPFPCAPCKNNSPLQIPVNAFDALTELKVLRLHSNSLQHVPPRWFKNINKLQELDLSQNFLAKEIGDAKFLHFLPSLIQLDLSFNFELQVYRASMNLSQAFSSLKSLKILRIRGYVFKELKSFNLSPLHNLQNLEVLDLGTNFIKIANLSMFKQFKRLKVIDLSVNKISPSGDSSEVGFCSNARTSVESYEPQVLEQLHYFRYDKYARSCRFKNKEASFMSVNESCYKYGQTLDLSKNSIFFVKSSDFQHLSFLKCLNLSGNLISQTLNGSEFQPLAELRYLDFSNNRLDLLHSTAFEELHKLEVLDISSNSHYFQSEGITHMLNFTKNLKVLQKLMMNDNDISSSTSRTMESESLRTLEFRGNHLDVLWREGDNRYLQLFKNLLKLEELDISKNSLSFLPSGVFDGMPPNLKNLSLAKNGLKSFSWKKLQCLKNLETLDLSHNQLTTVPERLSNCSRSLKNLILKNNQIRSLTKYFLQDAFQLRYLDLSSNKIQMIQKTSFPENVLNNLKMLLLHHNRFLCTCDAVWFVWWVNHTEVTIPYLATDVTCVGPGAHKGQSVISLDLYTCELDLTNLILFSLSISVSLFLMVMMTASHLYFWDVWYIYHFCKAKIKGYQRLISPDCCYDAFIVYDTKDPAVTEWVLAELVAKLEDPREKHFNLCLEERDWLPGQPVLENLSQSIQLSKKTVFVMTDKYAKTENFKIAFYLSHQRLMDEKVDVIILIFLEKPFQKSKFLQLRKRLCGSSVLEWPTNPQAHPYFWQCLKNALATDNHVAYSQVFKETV
Type: cell-based
Summary of the method: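 Steady-Glo luminescence after 5 h stimulation with R*48 agonist, following 30 min compound preincubation. Assay run in HEK cells carrying a TLR7/NFKb luciferase reporter, plated at 5000 cells/well and grown 24 h at 37° C (10% CO2) before treatment.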

SMILES	IC50 [nM]
C[C@@H]1CN(c2ccnc3nccnc23)C[C@H](CN2CCNCC2)O1 [Compound 48, (2R,6S)-2-methyl-6-(piperazin-1-ylmethyl)-4-(pyrido[2,3-b]pyrazin-8-yl)morpholine]	1000 to 10000
COCCN[C@@H]1C[C@H](C)CN(c2c(F)cc(C#N)c3nccnc23)C1 [Compound 344, 7-fluoro-8-[(3R,5S)-3-[(2-methoxyethyl)amino]-5-methylpiperidin-1-yl]quinoxaline-5-carbonitrile]	1000 to 10000
C[C@H]1C[C@@H](NC(=O)CC2CCN(C)C2)CN(c2ccc(C(F)(F)F)c3nccnc23)C1 (stereo partly drawn) [Compound 295, N-[(3R,5S)-5-methyl-1-[8-(trifluoromethyl)quinoxalin-5-yl]piperidin-3-yl]-2-(1-methylpyrrolidin-3-yl)acetamide]	< 1000
CC(C)[C@H](O)C(=O)N[C@@H]1C[C@H](C)CN(c2ccc(C(F)(F)F)c3ncccc23)C1 [Compound 194, (2S)-2-hydroxy-3-methyl-N-[(3R,5S)-5-methyl-1-[8-(trifluoromethyl)quinolin-5-yl]piperidin-3-yl]butanamide]	< 1000
C[C@H]1C[C@@H](NC(=O)CC2CC2(F)F)CN(c2ccc(C#N)c3nccnc23)C1 (stereo partly drawn) [Compound 272, N-[(3R,5S)-1-(8-cyanoquinoxalin-5-yl)-5-methylpiperidin-3-yl]-2-(2,2-difluorocyclopropyl)acetamide]	< 1000
CN(C)CC(=O)N[C@H]1C[C@@H](C2CC2)CN(c2ccc(C#N)c3nccnc23)C1 (relative stereo) [Compound 179, cis-N-[1-(8-cyanoquinoxalin-5-yl)-5-cyclopropylpiperidin-3-yl]-2-(dimethylamino)acetamide]	1000 to 10000
C[C@H]1C[C@@H](NC(=O)CC2CNC2)CN(c2ccc(C#N)c3nccnc23)C1 [Compound 274, 2-(azetidin-3-yl)-N-[(3R,5S)-1-(8-cyanoquinoxalin-5-yl)-5-methylpiperidin-3-yl]acetamide]	< 1000
c1ccc2c(N3CCC(COCCN4CCCCC4)CC3)ccnc2c1 [Compound 6, 4-(4-[[2-(piperidin-1-yl)ethoxy]methyl]piperidin-1-yl)quinoline]	1000 to 10000
N#Cc1ccc(N2CC(N)CC(C(F)(F)F)C2)c2nccnc12 (single isomer, unassigned) [Compound 82]	< 1000
C[C@H]1C[C@@H](NC(=O)CC2CNC2)CN(c2ccc(C(F)F)c3nccnc23)C1 [Compound 324, 2-(azetidin-3-yl)-N-[(3R,5S)-1-[8-(difluoromethyl)quinoxalin-5-yl]-5-methylpiperidin-3-yl]acetamide]	1000 to 10000
C[C@H]1C[C@@H](NC(=O)CC2CCN(C)C2)CN(c2ccc(C(F)F)c3nccnc23)C1 (stereo partly drawn) [Compound 319, N-[(3R,5S)-1-[8-(difluoromethyl)quinoxalin-5-yl]-5-methylpiperidin-3-yl]-2-(1-methylpyrrolidin-3-yl)acetamide]	< 1000
CNCC(=O)N[C@@H]1C[C@H](C)CN(c2ccc(C#N)c3nccnc23)C1 [Compound 28, N-((3R,5S)-1-(8-cyanoquinoxalin-5-yl)-5-methylpiperidin-3-yl)-2-(methylamino)acetamide hydrochloride]	< 1000
C[C@H]1C[C@@H](NC(=O)[C@@H](N)c2ccccc2)CN(c2ccc(C#N)c3nccnc23)C1 [Compound 117, (2S)-2-amino-N-[(3R,5S)-1-(8-cyanoquinoxalin-5-yl)-5-methylpiperidin-3-yl]-2-phenylacetamide]	< 1000
CCN(CC)CCNC(=O)C1CCN(c2ccnc3ncccc23)CC1 [Compound 1, N-(2-(diethylamino)ethyl)-1-(1,8-naphthyridin-4-yl)piperidine-4-carboxamide]	> 10000
CC(C)[C@H](N)C(=O)N[C@@H]1C[C@H](C)CN(c2ccnc3nccnc23)C1 [Compound 105, (2S)-2-amino-3-methyl-N-[(3R,5S)-5-methyl-1-[pyrido[2,3-b]pyrazin-8-yl]piperidin-3-yl]butanamide]	< 1000
N[C@H]1C[C@@H](C2CC2)CN(c2ccc(C(F)F)c3ncccc23)C1 (relative stereo) [Compound 332, cis-5-cyclopropyl-1-[8-(difluoromethyl)quinolin-5-yl]piperidin-3-amine]	< 1000
CN1CCC(N[C@H]2CN(c3ccc(C#N)c4nccnc34)CC(C)(C)C2)C1=O (stereo partly drawn) [Compound 219, 8-[(5R)-3,3-dimethyl-5-[(1-methyl-2-oxopyrrolidin-3-yl)amino]piperidin-1-yl]quinoxaline-5-carbonitrile]	< 1000
COCCN[C@@H]1C[C@H](C)CN(c2ccc(C#N)c3nccnc23)C1 [Compound 19, 8-((3R,5S)-3-(2-methoxyethylamino)-5-methylpiperidin-1-yl)quinoxaline-5-carbonitrile]	< 1000
C[C@H]1C[C@@H](NC(=O)CC2CCN(C)CC2)CN(c2ccc(C(F)F)c3ncccc23)C1 [Compound 316, N-[(3R,5S)-1-[8-(difluoromethyl)quinolin-5-yl]-5-methylpiperidin-3-yl]-2-(1-methylpiperidin-4-yl)acetamide]	< 1000
CN1CCC(NC2CC(C(F)(F)F)CN(c3ccc(C#N)c4nccnc34)C2)C1=O (single isomer, unassigned) [Compound 226]	< 1000

The remaining lines, values ahead:

IC50 [nM]	SMILES
1000 to 10000	CCN(CC)CCNCC1CCN(c2ccnc3ccc(F)cc23)CC1 [Compound 375, N,N-Diethyl-N′-[1-(6-fluoro-quinolin-4-yl)-piperidin-4-ylmethyl]-ethane-1,2-diamine]
1000 to 10000	O=C(NC1CN(c2ccc(C(F)(F)F)c3ncccc23)CC(F)(F)C1)C(O)C1CC1 (stereo not drawn) [Compound 513, 2-Cyclopropyl-N-[5,5-difluoro-1-(8-trifluoromethyl-quinolin-5-yl)-piperidin-3-yl]-2-hydroxy-acetamide]
> 10000	N#Cc1ccc(N2C[C@@H](N)C[C@@H](F)C2)c2nccnc12 [Compound 501, 8-((3S,5R)-3-Amino-5-fluoro-piperidin-1-yl)-quinoxaline-5-carbonitrile hydrochloride]
1000 to 10000	CNC(=O)[C@@H]1C[C@@H](C)CN(c2ccc(C#N)c3nccnc23)C1 (relative stereo) [Compound 542, trans-1-(8-Cyano-quinoxalin-5-yl)-5-methyl-piperidine-3-carboxylic acid methylamide]
1000 to 10000	CCN(CC)CC(=O)NC1CCN(c2ccnc3nccnc23)CC1 [Compound 390, 2-Diethylamino-N-(1-pyrido[2,3-b]pyrazin-8-yl-piperidin-4-yl)-acetamide]
1000 to 10000	N[C@H]1C[C@@H](C2CC2)CN(c2ccc(F)c3nccnc23)C1 (relative stereo) [Compound 366, cis-5-cyclopropyl-1-(8-fluoroquinoxalin-5-yl)piperidin-3-amine]
< 1000	CCN(CC)CCNC(=O)C1CCN(c2ccc(C(F)(F)F)c3ncccc23)CC1 [Compound 446, 1-(8-Trifluoromethyl-quinolin-5-yl)-piperidine-4-carboxylic Acid (2-diethylamino-ethyl)-amide]
< 1000	CC(C)(C)CC(=O)N[C@H]1C[C@@H](C(F)(F)F)CN(c2ccc(C#N)c3ncccc23)C1 (relative stereo) [Compound 431, cis-N-[1-(8-Cyano-quinolin-5-yl)-5-trifluoromethyl-piperidin-3-yl]-3,3-dimethyl-butyramide]
1000 to 10000	CN(C)CC(=O)NCC1CCN(c2ccnc3nccnc23)CC1 [Compound 394, 2-Dimethylamino-N-(1-pyrido[2,3-b]pyrazin-8-yl-piperidin-4-ylmethyl)-acetamide]
< 1000	C[C@H]1C[C@@H](NC(=O)CC2C3CC2CN(C)C3)CN(c2ccc(C#N)c3nccnc23)C1 (single isomer, unassigned) [Compound 358]
< 1000	N#Cc1ccc(N2CCC(CNC(=O)CN3CCC3)CC2)c2cccnc12 [Compound 417, 2-Azetidin-1-yl-N-[1-(8-cyano-quinolin-5-yl)-piperidin-4-ylmethyl]-acetamide]
> 10000	CCN(CC)CCNC(=O)C1CCN(c2ncc(F)c3nccnc23)CC1 [Compound 456, 1-(8-Fluoro-pyrido[3,4-b]pyrazin-5-yl)-piperidine-4-carboxylic Acid (2-diethylamino-ethyl)-amide]
< 1000	N#Cc1ccc(N2CCC(C(=O)NCCN3CCC3)CC2)c2cccnc12 [Compound 439, 1-(8-Cyano-quinolin-5-yl)-piperidine-4-carboxylic Acid (2-azetidin-1-yl-ethyl)-amide]
